Reference: publication PMC9005681, “Use of AD Informer Set compounds to explore validity of novel targets in Alzheimer's disease pathology” (Alzheimer's & Dementia : Translational Research & Clinical …, 2022)
“And” between values parts separate entries of the source, which are not always exact repeats. Identical values can stand only once.

Tests used:
Test in all cases: PDSP GPCR panel primary binding assays at 10 μM
[1] = biological target: T1, cloned human or rodent CNS receptors, channels, and transporters (PDSP panel) (Homo sapiens, UniProt P08172); conditions: M2, primary assay; for Mean %: mean inhibition; for Inhibition 1: replicate 1; for Inhibition 2: replicate 2; for Inhibition 3: replicate 3; for Inhibition 4: replicate 4
T1 construct: expressed in transfected cells
T1 sequence (P08172 1-466): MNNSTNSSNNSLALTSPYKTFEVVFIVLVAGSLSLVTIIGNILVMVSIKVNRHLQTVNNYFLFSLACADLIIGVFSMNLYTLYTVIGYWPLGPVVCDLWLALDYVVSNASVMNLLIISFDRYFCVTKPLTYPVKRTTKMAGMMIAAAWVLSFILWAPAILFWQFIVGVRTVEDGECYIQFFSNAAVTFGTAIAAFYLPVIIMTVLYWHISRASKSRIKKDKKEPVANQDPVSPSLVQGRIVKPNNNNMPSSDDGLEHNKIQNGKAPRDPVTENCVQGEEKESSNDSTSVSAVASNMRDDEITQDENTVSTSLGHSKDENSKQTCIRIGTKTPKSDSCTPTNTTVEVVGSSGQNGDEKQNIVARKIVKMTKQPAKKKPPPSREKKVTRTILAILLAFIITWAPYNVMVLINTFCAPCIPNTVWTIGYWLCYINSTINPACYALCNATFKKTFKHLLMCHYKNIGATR
Summary of the method: (§1)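 PDSP panel of 46–47 cloned human or rodent CNS receptors, channels and transporters; radioligand displacement by compound at 10 μM, in quadruplicate. Where average displacement exceeded 50%, secondary binding followed as 11-point dose-response in triplicate (none for H3, PBR or GABAA).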

[2] = biological target: T2, cloned human or rodent CNS receptors, channels, and transporters (PDSP panel) (Homo sapiens, UniProt P08912); conditions: M5, primary assay; for Mean %: mean inhibition; for Inhibition 1: replicate 1; for Inhibition 2: replicate 2; for Inhibition 3: replicate 3; for Inhibition 4: replicate 4
T2 construct: expressed in transfected cells
T2 sequence (P08912 1-532): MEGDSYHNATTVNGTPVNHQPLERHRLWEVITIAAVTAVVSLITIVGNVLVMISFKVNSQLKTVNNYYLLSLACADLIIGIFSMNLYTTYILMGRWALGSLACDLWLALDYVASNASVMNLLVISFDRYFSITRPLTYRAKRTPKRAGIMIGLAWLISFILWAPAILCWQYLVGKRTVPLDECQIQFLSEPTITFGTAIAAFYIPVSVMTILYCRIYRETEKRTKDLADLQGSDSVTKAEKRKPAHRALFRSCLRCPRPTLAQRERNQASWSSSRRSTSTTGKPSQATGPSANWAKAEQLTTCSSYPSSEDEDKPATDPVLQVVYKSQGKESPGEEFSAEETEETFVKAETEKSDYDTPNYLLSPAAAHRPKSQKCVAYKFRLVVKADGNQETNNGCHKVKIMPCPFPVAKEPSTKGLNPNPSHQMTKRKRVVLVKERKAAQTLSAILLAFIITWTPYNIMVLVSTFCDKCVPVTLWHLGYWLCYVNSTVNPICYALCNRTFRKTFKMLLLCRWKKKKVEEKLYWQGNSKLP
Summary of the method: as §1

[3] = biological target: T3, cloned human or rodent CNS receptors, channels, and transporters (PDSP panel) (Homo sapiens, UniProt P23975); conditions: NET, primary assay; for Inhibition 1: replicate 1; for Inhibition 2: replicate 2; for Inhibition 3: replicate 3; for Inhibition 4: replicate 4
T3 construct: expressed in transfected cells
Summary of the method: as §1

[4] = biological target: T4, cloned human or rodent CNS receptors, channels, and transporters (PDSP panel) (Homo sapiens, UniProt P35367); conditions: H1, primary assay; for Mean %: mean inhibition; for Inhibition 1: replicate 1; for Inhibition 2: replicate 2; for Inhibition 3: replicate 3; for Inhibition 4: replicate 4
T4 construct: expressed in transfected cells
Summary of the method: as §1

[5] = biological target: T5, cloned human or rodent CNS receptors, channels, and transporters (PDSP panel) (Homo sapiens, UniProt P41595); conditions: 5-HT2B, primary assay; for Mean %: mean inhibition; for Inhibition 1: replicate 1; for Inhibition 2: replicate 2; for Inhibition 3: replicate 3; for Inhibition 4: replicate 4
T5 construct: expressed in transfected cells
Summary of the method: as §1

[6] = biological target: T6, cloned human or rodent CNS receptors, channels, and transporters (PDSP panel) (Homo sapiens, UniProt Q01959); conditions: DAT, primary assay; for Mean %: mean inhibition; for Inhibition 1: replicate 1; for Inhibition 2: replicate 2; for Inhibition 3: replicate 3; for Inhibition 4: replicate 4
T6 construct: expressed in transfected cells
Summary of the method: as §1

[7] = tested on: cloned human or rodent CNS receptors, channels, and transporters (PDSP panel); conditions: primary assay; for Mean %: mean inhibition; for Inhibition 1: replicate 1; for Inhibition 2: replicate 2; for Inhibition 3: replicate 3; for Inhibition 4: replicate 4
Summary of the method: as §1

T6 sequence (Q01959 whole entry): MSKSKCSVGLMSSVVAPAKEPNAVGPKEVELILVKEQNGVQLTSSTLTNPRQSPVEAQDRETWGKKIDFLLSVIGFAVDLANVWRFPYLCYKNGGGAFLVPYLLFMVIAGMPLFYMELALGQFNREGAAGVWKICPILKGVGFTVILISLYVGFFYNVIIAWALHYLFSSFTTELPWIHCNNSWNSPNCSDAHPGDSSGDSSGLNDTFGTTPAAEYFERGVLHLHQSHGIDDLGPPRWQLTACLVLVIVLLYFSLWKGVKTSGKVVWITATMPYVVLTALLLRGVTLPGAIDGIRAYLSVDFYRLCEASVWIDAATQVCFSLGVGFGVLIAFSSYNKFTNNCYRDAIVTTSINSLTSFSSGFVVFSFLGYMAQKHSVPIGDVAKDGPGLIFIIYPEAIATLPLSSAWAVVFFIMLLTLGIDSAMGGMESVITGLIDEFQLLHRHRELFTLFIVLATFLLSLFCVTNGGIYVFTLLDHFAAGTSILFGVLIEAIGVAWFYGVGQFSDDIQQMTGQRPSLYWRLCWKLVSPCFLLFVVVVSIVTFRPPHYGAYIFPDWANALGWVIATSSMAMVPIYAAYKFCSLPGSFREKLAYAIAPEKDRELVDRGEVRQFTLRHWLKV
T3 sequence (P23975 whole entry): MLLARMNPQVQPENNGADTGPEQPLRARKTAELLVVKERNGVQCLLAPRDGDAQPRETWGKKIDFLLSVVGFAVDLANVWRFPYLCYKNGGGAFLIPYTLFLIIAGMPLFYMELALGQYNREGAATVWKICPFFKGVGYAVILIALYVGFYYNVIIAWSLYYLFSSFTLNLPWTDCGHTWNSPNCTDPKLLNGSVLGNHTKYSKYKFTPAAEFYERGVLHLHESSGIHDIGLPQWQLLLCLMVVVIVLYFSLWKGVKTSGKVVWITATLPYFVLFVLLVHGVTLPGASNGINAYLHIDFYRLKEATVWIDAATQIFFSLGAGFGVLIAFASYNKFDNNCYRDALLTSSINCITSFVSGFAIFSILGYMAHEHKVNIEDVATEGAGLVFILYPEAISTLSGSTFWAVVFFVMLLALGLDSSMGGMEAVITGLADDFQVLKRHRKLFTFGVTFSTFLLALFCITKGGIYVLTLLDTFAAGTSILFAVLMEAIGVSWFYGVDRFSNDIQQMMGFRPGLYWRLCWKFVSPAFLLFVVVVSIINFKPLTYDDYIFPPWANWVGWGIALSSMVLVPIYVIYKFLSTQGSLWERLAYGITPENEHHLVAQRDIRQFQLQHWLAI
T5 sequence (P41595 whole entry): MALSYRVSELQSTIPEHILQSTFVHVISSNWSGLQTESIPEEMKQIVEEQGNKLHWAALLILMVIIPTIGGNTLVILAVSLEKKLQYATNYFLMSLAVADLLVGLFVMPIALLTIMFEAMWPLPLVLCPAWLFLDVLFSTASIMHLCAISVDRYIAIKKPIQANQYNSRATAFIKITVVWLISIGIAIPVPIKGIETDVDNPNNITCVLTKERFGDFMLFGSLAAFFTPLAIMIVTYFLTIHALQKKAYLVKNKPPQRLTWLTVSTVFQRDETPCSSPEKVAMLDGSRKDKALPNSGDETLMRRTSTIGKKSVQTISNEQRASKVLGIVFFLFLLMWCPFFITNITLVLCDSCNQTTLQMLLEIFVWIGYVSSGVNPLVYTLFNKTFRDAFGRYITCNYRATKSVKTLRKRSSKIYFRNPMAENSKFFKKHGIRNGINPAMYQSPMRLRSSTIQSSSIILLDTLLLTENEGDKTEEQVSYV
T4 sequence (P35367 whole entry): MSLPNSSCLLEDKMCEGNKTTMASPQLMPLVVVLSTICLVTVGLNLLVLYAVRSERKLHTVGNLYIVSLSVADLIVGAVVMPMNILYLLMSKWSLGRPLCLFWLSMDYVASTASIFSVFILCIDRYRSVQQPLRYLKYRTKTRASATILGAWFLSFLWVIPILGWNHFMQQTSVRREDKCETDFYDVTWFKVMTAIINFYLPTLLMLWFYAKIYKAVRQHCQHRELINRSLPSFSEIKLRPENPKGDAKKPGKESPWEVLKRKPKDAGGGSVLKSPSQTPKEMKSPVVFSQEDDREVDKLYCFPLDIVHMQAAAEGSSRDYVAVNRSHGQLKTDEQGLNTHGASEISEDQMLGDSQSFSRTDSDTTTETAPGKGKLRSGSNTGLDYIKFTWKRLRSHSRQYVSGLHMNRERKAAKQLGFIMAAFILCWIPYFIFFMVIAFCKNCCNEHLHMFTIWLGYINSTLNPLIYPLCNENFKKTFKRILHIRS

## O=C(NC1CC1)C(=O)C(Cc1ccccc1)NC(=O)[C@H]1CCC(=O)N1Cc1ccccc1 (stereo partly shown) [UNC10302676A, ABT-957 (Alicapistat)]
[1]
  Mean %: 2.92%
  Inhibition 1: 7.16%
  Inhibition 2: -5.38%
  Inhibition 3: 7.65%
  Inhibition 4: 2.24%
[2]
  Mean %: -3.53%
  Inhibition 1: 2.18%
  Inhibition 2: -7.48%
  Inhibition 3: -4.57%
  Inhibition 4: -4.26%
[3]
  Inhibition 1: 22.45% and -0.84%
  Inhibition 2: -3.8% and -22.08%
  Inhibition 3: -17.85% and -14.66%
  Inhibition 4: -11.29% and -22.96%
[4]
  Mean %: 47.25%
  Inhibition 1: 60.11%
  Inhibition 2: 50.46%
  Inhibition 3: 44.57%
  Inhibition 4: 33.86%
[5]
  Mean %: -32.15%
  Inhibition 1: -14.32%
  Inhibition 2: -33.19%
  Inhibition 3: -45.78%
  Inhibition 4: -35.29%
[6]
  Mean %: 30.14%
  Inhibition 1: 25.06%
  Inhibition 2: 27.22%
  Inhibition 3: 40.62%
  Inhibition 4: 27.66%
[7]; Alpha1A
  Mean %: -18.33%
  Inhibition 1: -14.03%
  Inhibition 2: -31.43%
  Inhibition 3: -21.43%
  Inhibition 4: -6.43%
[7]; Alpha2A
  Mean %: 5.04%
  Inhibition 1: 2.51%
  Inhibition 2: 2.44%
  Inhibition 3: -2.65%
  Inhibition 4: 17.86%
[7]; Alpha2C
  Mean %: -12.84%
  Inhibition 1: -8.12%
  Inhibition 2: -10.33%
  Inhibition 3: -21.43%
  Inhibition 4: -11.46%
[7]; BZP Rat Brain Site
  Mean %: 3.75%
  Inhibition 1: 19.6%
  Inhibition 2: -1.35%
  Inhibition 3: -4.1%
  Inhibition 4: 0.83%
[7]; DOR
  Mean %: -6.76%
  Inhibition 1: 2.73%
  Inhibition 2: -0.34%
  Inhibition 3: -9.56%
  Inhibition 4: -19.86%
[7]; GABAA
  Inhibition 1: 23.2% and -15.74%
  Inhibition 2: 18.02% and -7.64%
  Inhibition 3: -2.68% and 0%
  Inhibition 4: 4.71% and -21.69%
[7]; H3
  Mean %: -14.21%
  Inhibition 1: -25.14%
  Inhibition 2: -2.99%
  Inhibition 3: -42.04%
  Inhibition 4: 13.33%
[7]; H4
  Mean %: -11.52%
  Inhibition 1: -3.78%
  Inhibition 2: -13.62%
  Inhibition 3: -23.94%
  Inhibition 4: -4.74%
[7]; Sigma 1
  Mean %: -2.52%
[7]; Sigma 2
  Mean %: 7.31%

## CNc1nc(C)nc(N[C@H]2CCC[C@@H](C(=O)NCc3ccc(C#N)cc3C(F)(F)F)C2)n1 [UNC10302679A, GSK2256294A]
[1]
  Mean %: -9.25%
  Inhibition 1: -13.73%
  Inhibition 2: -23.07%
  Inhibition 3: -14.72%
  Inhibition 4: 14.53%
[2]
  Mean %: -6.81%
  Inhibition 1: 1.27%
  Inhibition 2: -10.6%
  Inhibition 3: -10.81%
  Inhibition 4: -7.08%
[3]; mean inhibition
  Mean %: -0.13% and 6.71%
[3]
  Inhibition 1: 26.63% and -24.8%
  Inhibition 2: 1.57% and -7.07%
  Inhibition 3: -2.48% and 7.39%
  Inhibition 4: -26.22% and 51.32%
[4]
  Mean %: 71.69%
  Inhibition 1: 93.05%
  Inhibition 2: 75.46%
  Inhibition 3: 68.14%
  Inhibition 4: 50.11%
[5]
  Mean %: -22.71%
  Inhibition 1: -0.89%
  Inhibition 2: -25.64%
  Inhibition 3: -26.48%
  Inhibition 4: -37.81%
[6]
  Mean %: 54.13%
  Inhibition 1: 56.61%
  Inhibition 2: 53.37%
  Inhibition 3: 54.99%
  Inhibition 4: 51.53%
[7]; Alpha1A
  Mean %: -0.8%
  Inhibition 1: -1.03%
  Inhibition 2: -7.95%
  Inhibition 3: -14.5%
  Inhibition 4: 20.29%
[7]; Alpha2A
  Mean %: -5.79%
  Inhibition 1: -3.6%
  Inhibition 2: -9.38%
  Inhibition 3: -7.24%
  Inhibition 4: -2.95%
[7]; Alpha2C
  Mean %: 1.02%
  Inhibition 1: 11.32%
  Inhibition 2: 1.35%
  Inhibition 3: -11.52%
  Inhibition 4: 2.93%
[7]; BZP Rat Brain Site
  Mean %: 4.01%
  Inhibition 1: 13.82%
  Inhibition 2: 5.95%
  Inhibition 3: -2.77%
  Inhibition 4: -0.97%
[7]; DOR
  Mean %: 1.65%
  Inhibition 1: 14.12%
  Inhibition 2: -1.97%
  Inhibition 3: -1.78%
  Inhibition 4: -3.77%
[7]; GABAA
  Mean %: -6.38% and -12.1%
  Inhibition 1: -3.42% and -8.72%
  Inhibition 2: -12.29% and -15.74%
  Inhibition 3: -18.95% and -24.39%
  Inhibition 4: 9.15% and 0.47%
[7]; H3
  Mean %: 13.41%
  Inhibition 1: 10.42%
  Inhibition 2: 5.17%
  Inhibition 3: 19.16%
  Inhibition 4: 18.87%
[7]; H4
  Mean %: -11.7%
  Inhibition 1: -16.74%
  Inhibition 2: -15.78%
  Inhibition 3: -13.62%
  Inhibition 4: -0.66%
[7]; Sigma 1
  Mean %: 4.17%
[7]; Sigma 2
  Mean %: -5.66%
